Measured values taken from patent US20240124872A1, “IDENTIFICATION OF GENOMIC TARGETS” (University of Leeds, priority 2021, published 2024).

Columns and labels:
[1] = tested on: HeLa cells stably expressing CaMPARI-H396K; test: AITC responsiveness via Fura-2 calcium imaging; assay type: cell-based; conditions: unmodified HeLa cells stably expressing CaMPARI-H396K (HeLa-C); FIG. 4
Description: FIG. 4 provides validation of TAGS (AITC-screen for TRPA1). a) a Piggy-Bac library was generated in Hela-C cells, stimulated with 100 uM AITC and co-incident photo-conversion light, and sorted via FACS based on CaMPARI red/green signal. b) Positive clones were collected as single cells, expanded into clonal populations, and testing for AITC responsiveness via Fura-2 calcium imaging. Percent responding cells are shown for each population. c-d) Example Fura-2 imaging traces. c) phenotypic negativity of HeLa-C cells. d) Example traces from population #22 in b. e) Genotyping of 100% responders. […] Blue arrows highlight transcription start site (TSS) of TRPA1. Red arrows highlight the true common insertion site (CIS) upstream of the TSS, found in every clone genotyped.
A test sample from each positive clonal line was loaded with the fluorescent calcium indicator Fura-2AM for 30 minutes in regular media supplemented with 1 ul/ml PluronicF127, washed with Ringer solution, and tested for positivity for the phenotype in question using conventional fluorescent microscopy (see FIG. 4a-d). A further test sample from confirmed positive clonal lines was transfected (as described above) with the pCAG-Cre vector (Addgene) to induce transient Cre recombinase expression. Phenotypic positivity was then re-tested as above, and populations in which the phenotype […] are discarded. […]

TRPA1 knockout mice = conditions: cited from earlier work

In the case of `C=CCN=C=S` [AITC], the “AITC responses (calcium signalling)” value [1] is given as “phenotypically negative” and the “sensitivity to AITC” value (TRPA1 knockout mice) is given as “lose all sensitivity”.
